Data as given in patent publication US9938261B2, “Heterocyclic compounds and methods of use thereof” (AMBIT BIOSCIENCES CORPORATION, priority 2011, dated 2018).
Where two headings read alike, the source gives them in different places.

Assays:
[1] = biological target: T1, KIT (Homo sapiens, UniProt P10721); assay: Competition binding assay, KIT Kd
T1 construct: made in house
Procedure: (§1) Competition binding assays used herein were developed, validated and performed as described in Fabian et al., Nature Biotechnology 2005, 23, 329-336. Kinases were produced as fusions to T7 phage (See, Fabian et al. or WO04/015142) or alternatively, the kinases were expressed in HEK-293 cells and subsequently tagged with DNA for PCR detection (See, WO08/005310). For the binding assays, streptavidin-coated magnetic beads were treated with biotinylated affinity ligands for 30 min at room temperature to generate affinity resins. The liganded beads were blocked with excess biotin and washed with blocking buffer (SeaBlock (Pierce), 1% BSA, 0.05% Tween 20, 1 mM DTT) to remove unbound ligand and to reduce non-specific binding. Binding reactions were assembled by combining kinase, liganded affinity beads, and test compounds in 1× binding buffer (20% SeaBlock, 0.17×PBS, 0.05% Tween 20, 6 mM DTT). Test compounds were prepared as 100× stocks in DMSO and diluted into the aqueous environment. Kds were determined using an eleven point threefold serial dilutions. DMSO or control compounds were was added to control assays lacking a test compound. Primary screen assays were performed in polypropylene 384-well plates in a final volume of 20-40 μL, while Kd determinations were performed in polystyrene 96-well plates in a final volume of 135 μL. The assay plates were incubated at room temperature with shaking for 1 hour to allow the binding reactions to reach equilibrium, and the affinity beads were washed extensively with wash buffer (1×PBS, 0.05% Tween 20) to remove unbound protein. The beads were then resuspended in elution buffer (1×PBS, 0.05% Tween […] non-biotinylated affinity ligand) and incubated at room temperature with shaking for 30 min. The kinase concentration in the eluates was measured by quantitative PCR.

[2] = biological target: T2, CSF1R (Homo sapiens, UniProt P07333); assay: Competition binding assay, CSF1R Kd; set-up: made in house
T2 sequence (P07333 20-972): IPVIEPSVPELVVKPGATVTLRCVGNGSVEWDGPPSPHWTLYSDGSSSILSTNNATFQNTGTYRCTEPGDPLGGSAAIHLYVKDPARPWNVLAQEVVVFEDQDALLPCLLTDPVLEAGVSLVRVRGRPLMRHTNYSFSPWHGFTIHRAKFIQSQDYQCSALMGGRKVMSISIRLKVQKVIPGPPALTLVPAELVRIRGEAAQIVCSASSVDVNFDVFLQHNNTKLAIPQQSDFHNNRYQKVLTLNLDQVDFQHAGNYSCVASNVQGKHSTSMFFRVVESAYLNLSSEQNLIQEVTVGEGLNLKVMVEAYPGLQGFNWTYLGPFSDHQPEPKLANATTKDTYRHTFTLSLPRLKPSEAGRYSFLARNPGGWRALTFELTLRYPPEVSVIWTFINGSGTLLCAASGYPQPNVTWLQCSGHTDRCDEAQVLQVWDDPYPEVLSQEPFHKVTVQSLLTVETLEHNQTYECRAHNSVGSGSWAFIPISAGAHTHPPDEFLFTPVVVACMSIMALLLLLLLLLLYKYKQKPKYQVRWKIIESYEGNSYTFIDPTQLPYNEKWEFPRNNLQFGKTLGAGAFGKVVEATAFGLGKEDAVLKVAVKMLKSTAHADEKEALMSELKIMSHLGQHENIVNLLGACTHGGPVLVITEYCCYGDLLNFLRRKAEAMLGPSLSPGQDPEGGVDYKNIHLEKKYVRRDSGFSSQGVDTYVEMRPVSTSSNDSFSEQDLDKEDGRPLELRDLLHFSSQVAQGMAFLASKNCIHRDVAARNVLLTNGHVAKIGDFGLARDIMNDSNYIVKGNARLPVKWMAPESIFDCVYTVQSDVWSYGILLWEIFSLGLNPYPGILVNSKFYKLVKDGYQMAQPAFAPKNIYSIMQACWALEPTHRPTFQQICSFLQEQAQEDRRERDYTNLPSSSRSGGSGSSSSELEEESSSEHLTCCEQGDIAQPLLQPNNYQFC
Procedure: as §1

[3] = biological target: T3, PDGFRβ (Homo sapiens, UniProt P09619); assay: Competition binding assay, PDGFRβ Kd
T3 construct: made in house
T3 sequence (P09619 33-1106): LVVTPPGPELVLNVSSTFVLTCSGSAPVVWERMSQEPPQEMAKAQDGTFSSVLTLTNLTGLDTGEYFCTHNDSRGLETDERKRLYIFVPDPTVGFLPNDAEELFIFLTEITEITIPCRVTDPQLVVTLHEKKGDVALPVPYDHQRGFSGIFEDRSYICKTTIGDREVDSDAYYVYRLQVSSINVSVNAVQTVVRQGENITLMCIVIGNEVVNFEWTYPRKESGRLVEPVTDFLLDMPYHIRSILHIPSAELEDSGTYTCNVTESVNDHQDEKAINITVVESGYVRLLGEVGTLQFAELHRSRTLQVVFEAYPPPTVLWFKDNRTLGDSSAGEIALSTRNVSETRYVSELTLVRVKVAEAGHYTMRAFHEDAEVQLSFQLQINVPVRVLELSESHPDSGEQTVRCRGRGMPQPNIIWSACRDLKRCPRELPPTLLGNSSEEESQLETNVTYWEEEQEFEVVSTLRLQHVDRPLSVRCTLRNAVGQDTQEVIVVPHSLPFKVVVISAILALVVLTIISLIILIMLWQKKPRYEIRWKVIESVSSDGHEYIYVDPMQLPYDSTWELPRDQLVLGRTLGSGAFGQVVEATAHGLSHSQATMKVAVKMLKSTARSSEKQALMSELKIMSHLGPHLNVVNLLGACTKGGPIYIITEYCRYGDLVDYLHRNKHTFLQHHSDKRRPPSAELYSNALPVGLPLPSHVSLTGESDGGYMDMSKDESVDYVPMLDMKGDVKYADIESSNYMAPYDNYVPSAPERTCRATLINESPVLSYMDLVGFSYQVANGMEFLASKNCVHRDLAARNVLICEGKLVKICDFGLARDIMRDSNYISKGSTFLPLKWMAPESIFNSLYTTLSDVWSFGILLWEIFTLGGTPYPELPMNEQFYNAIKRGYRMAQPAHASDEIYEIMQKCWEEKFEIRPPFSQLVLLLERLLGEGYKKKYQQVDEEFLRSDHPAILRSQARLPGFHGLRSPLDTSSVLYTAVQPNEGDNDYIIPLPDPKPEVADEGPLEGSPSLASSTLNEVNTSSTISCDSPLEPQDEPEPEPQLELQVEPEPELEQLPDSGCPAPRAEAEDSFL
Procedure: as §1

[4] = biological target: T4, FLT3 (Homo sapiens, UniProt P36888); assay: Competition binding assay, FLT3 Kd
T4 construct: made in house
T4 sequence (P36888 27-993): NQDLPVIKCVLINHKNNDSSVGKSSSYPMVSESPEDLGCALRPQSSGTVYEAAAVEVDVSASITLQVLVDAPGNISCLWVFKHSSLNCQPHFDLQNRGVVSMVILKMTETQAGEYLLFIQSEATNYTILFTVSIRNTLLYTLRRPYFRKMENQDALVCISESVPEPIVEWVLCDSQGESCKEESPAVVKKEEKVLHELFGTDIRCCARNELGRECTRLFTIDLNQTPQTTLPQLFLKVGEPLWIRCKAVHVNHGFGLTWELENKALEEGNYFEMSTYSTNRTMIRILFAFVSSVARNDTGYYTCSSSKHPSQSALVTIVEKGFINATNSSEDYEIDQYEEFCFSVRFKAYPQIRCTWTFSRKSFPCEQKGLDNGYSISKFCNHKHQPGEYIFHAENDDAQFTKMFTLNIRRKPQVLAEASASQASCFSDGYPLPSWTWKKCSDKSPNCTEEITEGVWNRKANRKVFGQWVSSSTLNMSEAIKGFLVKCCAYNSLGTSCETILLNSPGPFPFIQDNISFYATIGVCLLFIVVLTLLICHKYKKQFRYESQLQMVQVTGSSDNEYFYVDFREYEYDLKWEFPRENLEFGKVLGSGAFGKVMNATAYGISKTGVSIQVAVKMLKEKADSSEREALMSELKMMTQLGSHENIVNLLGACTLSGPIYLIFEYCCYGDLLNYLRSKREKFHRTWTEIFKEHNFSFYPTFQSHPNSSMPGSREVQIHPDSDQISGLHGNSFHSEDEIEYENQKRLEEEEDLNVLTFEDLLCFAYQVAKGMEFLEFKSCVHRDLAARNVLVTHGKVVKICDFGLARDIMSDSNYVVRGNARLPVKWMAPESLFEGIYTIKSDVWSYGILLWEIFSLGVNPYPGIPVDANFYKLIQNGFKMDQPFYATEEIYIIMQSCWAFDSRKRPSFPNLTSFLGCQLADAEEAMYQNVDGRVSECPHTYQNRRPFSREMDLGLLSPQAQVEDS
Procedure: as §1

[5] = biological target: T2, CSF1R; assay: HEK293 CSF1R phosphorylation MSD assay; type: cell-based; set-up: expressed in transfected cells; host or cells: HEK293; conditions: read-out: HEK293 pCSF1R M-CSF MSD:IC50
Procedure: The compounds disclosed herein were tested in a CSF1R phosphorylation assay to determine their cellular potency against CSF1R. A HEK293 cell line expressing CSF1R fused to FK506 binding protein (FKBP) as a molecular tag was generated. Inhibition of CSF1R kinase activity will prevent ligand-stimulated autophosphorylation of the CSF1R-FKBP in intact cells. Subsequent cell lysates are assayed in a sandwich ELISA employing the electrochemiluminescent Meso Scale Discovery (MSD) technology for the presence of the phosphorylated (p)CSF1R-FKBP. This assay determines the potency of compounds as CSF1R inhibitors by measuring the reduction in the amount of pCSF1R with increasing doses of compounds added to the cells prior to M-CSF stimulation.
On day one of the experiment, HEK293-CSF1R-FKPB cells, maintained in DMEM, with L-glutamine (Mediatech), 10% FBS, and 100 units/mL Penicillin/Streptomycin, were seeded at 50,000 cell/well in a volume of 100 μL per well in 96-well Cell Bind plates (Costar). The cells were cultured overnight at 37° C. under 5% CO2. To prepare the plates used in the MSD assay, a 330 nM biotin-FK506 (in TBS pH 7.2) solution was added at 30 μL per well to streptavidin-coated 96-well plates (MSD), and incubated overnight at room temperature, shaking at 500 rpm on an orbital shaker.
On day two, compounds diluted in DMSO were added to the cells in duplicate plates at 9 different concentrations with half-log intervals, plus DMSO only control, alongside a reference compound serving as a positive control. Final DMSO concentration was 0.5% in a volume of 200 μL per well. The compounds were allowed to incubate with the cells for 2 h at 37° C. under 5% CO2. At the end of the incubation, human M-CSF (R&D Systems) was added for 5 min to a final concentration of 50 ng/mL to stimulate CSF1R phosphorylation. Cells were lysed for 20 min, and the lysates were applied to the washed, FK506-coated MSD plates, and incubated overnight at 4° C. shaking at 500 rpm.
On day three, the MSD plates were washed, and the captured CSF1R-FKBP was assayed sequentially for phosphorylation using mouse anti-phosphotyrosine antibody (Millipore) and Sulfo-TAG goat anti-mouse IgG antibody (MSD), and detected on a Sector Imager 6000 instrument (MSD).
A single IC50 value for each compound was determined by averaging the IC50s of the duplicates calculated using Igor Pro 6 software, and represents the compound concentration that achieves a 50% inhibition of ligand-induced CSF1R phosphorylation compared to DMSO control.

[6] = tested on: M-NFS-60 cells; assay: M-NFS-60 cell proliferation assay (Alamar Blue); type: cell-based, mouse; conditions: Mus musculus, read-out: CSF1R M-NFS-60 CTB:IC50
Procedure: The compounds disclosed herein were tested in an M-NFS-60 cell proliferation assay to determine their cellular potency against CSF1R. M-NFS-60s are mouse monocytic cells that depend on the binding of the ligand M-CSF to its receptor, CSF1R, to proliferate. Inhibition of CSF1R kinase activity will cause reduced growth and/or cell death. This assay assesses the potency of compounds as CSF1R inhibitors by measuring the reduction of Alamar Blue reagent by viable cells.
On day one of the experiment, M-NFS-60 cells were maintained in RPMI complete medium (Omega Scientific) plus 10% FBS supplemented with 20 ng/mL of M-CSF (R&D Systems). 96-well TC-treated, flat bottom plates were seeded at 10,000 cell/well at a volume of 100 μL per well. The cells were cultured overnight at 37° C. under 5% CO2.
On day two, compounds were added to the cells at 9 different concentrations, with half-log intervals alongside a control reference compound serving as a positive control. Final DMSO concentration was kept at 0.5% for a final volume of 200 μL. The compounds were allowed to incubate with the cells for 72 hours at 37° C. under 5% CO2.
On day five of the experiment, 40 μl of Alamar Blue reagent was added to each well and allowed to incubate for 3 hours. Alamar Blue fluorescence was read using SoftMax Pro software at 560 nm (excitation) and 590 nm (emission). IC50s were generated as an average of duplicates and represents the concentration of test compound that achieves 50% inhibition of cellular proliferation compared to control.

[7] = 2 h compound, human M-CSF 50 ng/mL for 5 min
[8] = 72 hours incubation, M-CSF 20 ng/mL

T1 sequence (P10721 26-976): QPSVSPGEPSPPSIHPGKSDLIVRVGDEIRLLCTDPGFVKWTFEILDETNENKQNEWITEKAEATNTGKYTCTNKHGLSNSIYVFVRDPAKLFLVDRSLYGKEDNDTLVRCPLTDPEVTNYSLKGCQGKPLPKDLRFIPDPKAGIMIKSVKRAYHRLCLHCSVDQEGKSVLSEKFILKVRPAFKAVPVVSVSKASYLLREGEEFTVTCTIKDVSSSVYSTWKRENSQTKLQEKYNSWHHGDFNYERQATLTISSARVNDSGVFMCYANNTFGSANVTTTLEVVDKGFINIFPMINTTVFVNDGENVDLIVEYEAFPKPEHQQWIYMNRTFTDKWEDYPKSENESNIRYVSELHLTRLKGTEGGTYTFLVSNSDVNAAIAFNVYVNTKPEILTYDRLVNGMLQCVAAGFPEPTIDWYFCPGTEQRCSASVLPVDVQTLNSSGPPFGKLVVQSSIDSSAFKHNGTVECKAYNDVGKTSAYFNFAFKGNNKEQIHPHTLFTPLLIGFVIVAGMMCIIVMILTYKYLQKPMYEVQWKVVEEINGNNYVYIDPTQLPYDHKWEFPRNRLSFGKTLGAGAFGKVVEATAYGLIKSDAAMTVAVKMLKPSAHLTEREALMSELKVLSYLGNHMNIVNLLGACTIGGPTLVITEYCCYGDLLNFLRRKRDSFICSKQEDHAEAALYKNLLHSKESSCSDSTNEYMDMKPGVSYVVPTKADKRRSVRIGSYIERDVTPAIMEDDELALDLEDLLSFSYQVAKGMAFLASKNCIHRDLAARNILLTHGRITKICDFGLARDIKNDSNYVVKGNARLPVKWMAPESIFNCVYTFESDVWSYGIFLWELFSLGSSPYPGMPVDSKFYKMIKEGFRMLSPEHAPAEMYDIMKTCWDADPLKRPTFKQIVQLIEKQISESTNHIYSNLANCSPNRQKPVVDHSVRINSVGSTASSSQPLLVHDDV

| Kd [1] [nM] | Kd [2] [nM] | Kd [3] [nM] | Kd [4] [nM] | IC50 [5, 7] [nM] | Kd ([1]; competition binding) [nM] | Kd ([2]; competition binding) [nM] | Kd ([3]; competition binding) [nM] | Kd ([4]; competition binding) [nM] | IC50 ([5]; HEK293 cells, M-CSF stimulated CSF1R phosphorylation, MSD) [nM] | SMILES | IC50 [6, 8] [nM] | IC50 ([6]; M-NFS-60 cell proliferation) [nM] |
| --- | --- | --- | --- | --- | --- | --- | --- | --- | --- | --- | --- | --- |
| 100 to 500 | 5 to 20 | 50 to 500 | 1000 to 5000 | 50 to 200 | – | – | – | – | – | N=C(NO)c1cnc2c(c1)ncn2Cc1ccc2nc(N[C@@H]3CCCC[C@H]3O)sc2c1 [Example 90, N-hydroxy-3-((2-(((1R,2R)-2-hydroxycyclohexyl)amino)benzo[d]thiazol-6-yl)methyl)-3H-imidazo[4,5-b]pyridine-6-carboximidamide] | 50 to 400 | – |
| 100 to 500 | 5 to 20 | 50 to 500 | 1000 to 5000 | 50 to 200 | – | – | – | – | – | CCOc1ccccc1Nc1nc2ccc(Cn3cnc4cc(OC)c(OC)cc43)cc2s1 [Example 27, 6-((5,6-dimethoxy-1H-benzo[d]imidazol-1-yl)methyl)-N-(2-ethoxyphenyl)benzo[d]thiazol-2-amine] | 50 to 400 | – |
| 100 to 500 | 5 to 20 | 50 to 500 | ≤ 200 | 50 to 200 | – | – | – | – | – | O[C@@H]1CCCC[C@H]1Nc1nc2ccc(Cn3cnc4ccccc43)cc2s1 [Example 6, (1R,2R)-2-((6-((1H-benzo[d]imidazol-1-yl)methyl)benzo[d]thiazol-2-yl)amino)cyclohexanol] | 50 to 400 | – |
| ≤ 100 | ≤ 5 | 50 to 500 | 1000 to 5000 | 50 to 200 | – | – | – | – | – | COc1ccccc1Nc1nc2ccc(Cn3cnc4cc(OC)c(OC)cc43)cc2s1 [Example 30, 6-((5,6-dimethoxy-1H-benzo[d]imidazol-1-yl)methyl)-N-(2-methoxyphenyl)benzo[d]thiazol-2-amine] | 50 to 400 | – |
| ≤ 100 | 5 to 20 | ≤ 50 | 1000 to 5000 | 50 to 200 | – | – | – | – | – | CN(C)C(=O)c1cnc2c(c1)ncn2Cc1ccc2nc(N[C@@H]3CCCC[C@H]3O)sc2c1 [Example 92, 3-((2-(((1R,2R)-2-hydroxycyclohexyl)amino)benzo[d]thiazol-6-yl)methyl)-N,N-dimethyl-3H-imidazo[4,5-b]pyridine-6-carboxamide] | 50 to 400 | – |
| 500 to 2000 | 5 to 20 | 50 to 500 | 1000 to 5000 | 200 to 500 | – | – | – | – | – | COc1cc2ncn(Cc3ccc4nc(N[C@@H]5c6ccccc6C[C@@H]5O)sc4c3)c2cc1OC [Example 10, (1R,2S)-1-((6-((5,6-dimethoxy-1H-benzo[d]imidazol-1-yl)methyl)benzo[d]thiazol-2-yl)amino)-2,3-dihydro-1H-inden-2-ol] | 400 to 1500 | – |
| 100 to 500 | ≤ 5 | ≤ 50 | 1000 to 5000 | 50 to 200 | – | – | – | – | – | O[C@@H]1Cc2ccccc2[C@H]1Nc1nc2ccc(Cn3cnc4cc(F)cnc43)cc2s1 [Example 69, (1R,2R)-1-((6-((6-fluoro-3H-imidazo[4,5-b]pyridin-3-yl)methyl)benzo[d]thiazol-2-yl)amino)-2,3-dihydro-1H-inden-2-ol] | 50 to 400 | – |
| ≤ 100 | 5 to 20 | 50 to 500 | 200 to 1000 | ≤ 50 | – | – | – | – | – | O[C@@H]1CCCC[C@H]1Nc1nc2ccc(Cn3cnc4cc(Br)cnc43)cc2s1 [Example 29, (1R,2R)-2-((6-((6-bromo-3H-imidazo[4,5-b]pyridin-3-yl)methyl)benzo[d]thiazol-2-yl)amino)cyclohexanol] | 50 to 400 | – |
| – | – | – | – | – | 500 to 2000 | 5 to 20 | 500 to 2000 | > 5000 | 50 to 200 | OCCOc1ccn2c(Cc3ccc4nc(N[C@@H]5CCCC[C@H]5O)sc4c3)cnc2c1 [Example 135, (1R,2R)-2-((6-((7-(2-hydroxyethoxy)imidazo[1,2-a]pyridin-3-yl)methyl)benzo[d]thiazol-2-yl)amino)cyclohexanol] | – | 50 to 400 |
| 500 to 2000 | 20 to 50 | 500 to 2000 | 1000 to 5000 | 200 to 500 | – | – | – | – | – | COc1cc2ncn(Cc3ccc4nc(NCc5ccccn5)sc4c3)c2cc1OC [Example 9, 6-((5,6-dimethoxy-1H-benzo[d]imidazol-1-yl)methyl)-N-(pyridin-2-ylmethyl)benzo[d]thiazol-2-amine] | > 1500 | – |
